{
  "source": "patent US10472330B2",
  "about": "“Substituted triazenes protected from degradation by carboxylation of N1” (ARIZONA BOARD OF REGENTS ON BEHALF OF THE UNIVERSITY OF …, priority 2015, dated 2019)",
  "assay_type_in_all_cases": "physicochemical",
  "key": {"[1]": {"experiment": "Decomposition in D2O / buffers followed by NMR", "settings": "for Compound consumed after 24 hours: D2O, in the dark", "experimental": "For decomposition experiments, buffers were made to the appropriate pH in a 9:1 mix of H2O:D2O. These solutions were added to the compound being assayed such that the buffer capacity was at least 10 fold the concentration of the compound. Some experiments used 5 mg compound in 0.5 mL of buffer (e.g., pH 5 acetate buffer at 25 degrees C.). These were immediately inserted into an NMR instrument and scans were taken at even time intervals to calculate the half-life of the compound based on integration.\n(§1) To render the triazabutadiene water-soluble, methyl imidazole was alkylated with propane sultone to provide the Zwitterionic NHC precursor Compound 5a (see FIG. 6E). […] Compound 6a was highly colored, so its pH dependence was studied using UV/vis. The reactions were not only pH-, but also scan-frequency dependent. Upon finding this, the stability of Compound 6a was studied in D2O in the dark using NMR. Even in the dark it was unstable, but not in the diazonium-forming way. Both Compound 6b and a more hindered mesityl (Mes) substituted Compound 6c (see FIG. 6E) were synthesized to stabilize what was initially considered to be a rearrangement pathway that could be blocked by steric repulsion. […] Dissolution in 0.1 N NaOH rendered all compounds stable (e.g., no detectable degradation after 24 hours in the dark).\nAs mentioned above, Compound 6c was reasonably stable in pure D2O. Upon adjusting the pH to 5 with HCl, a rapid initial consumption of Compound 6c to Compound 7 (see FIG. 6E) and a benzenediazonium salt was noted. After this initial burst of reactivity, a slowing and apparent arresting of the reaction was noted. At this pH the hydronium was the limiting reagent. All future reactions were run in buffers with a buffer capacity sufficient to maintain a large excess of hydronium ions. The experiments were performed in 90:10 H2O:D2O buffered solutions to minimize considerations of pH vs. pD. The decomposition to diazonium salts and Compound 7 was measured as a function of pH in phosphate/citrate buffers from pH 4-7 and in a phosphate buffer from pH 6-8. All runs provided linear correlations of concentration and time, indicating a pseudo-zero order reaction (first order with respect to hydronium ion with a large excess of hydronium ions). While the peaks for Compound 7 remained constant, the peaks associated with Compound 6c drifted downfield as the reaction progressed. This drifting was highly reproducible across samples and buffers, but the underlying cause is not understood at this time. A sigmoidal correlation between rate and buffer pH centered at pH 6 was obtained. When resorcinol was not added to consume the diazonium species, 4-phenylazophenol (Compound 8) was observed (see FIG. 6F). Compound 8 came from the decomposition of one diazonium ion to phenol followed by reaction with a second diazonium ion. The instability of Compound 6c in a pH 7 phosphate buffer was surprising given the stability in D2O. Compound 6c was tested in a non-buffered 90:10 H2O:D2O solution and observed only […] after 6 hours.\n(§2) To further examine the reactivity of this class of compounds, variants Compound 6d and Compound 6e were synthesized (see FIG. 6G). It was hypothesized that the p-methoxy and p-nitro analogs (Compound 6d and Compound 6e, respectively) would display different reactivity profiles. […] After collecting the precipitate and dissolving it in deuterated methanol, no change was observed from a sample of Compound 6e that had never been exposed to a buffered solution. […] It is possible that: 1) that the sodium salt of Compound 6e is much less soluble than the potassium salt; or 2) with different solvating ions present the sulfonate interacts with the electron-poor N2 nitrogen atom of the triazabutadiene to break conjugation and form an insoluble complex (this is backed by a reversible color change of the starting rust-red solid, to the light yellow precipitate). […]"}, "Solubility observations": {"experiment": "Solubility observations", "experimental": "It is possible that Compound A may be useful as a photo-catalytic base in the context of organic reactions. […] As noted previously, Compound A is quite stable to an excess of acetic acid in DMSO, showing only 12% degradation over 14 hours at room temperature. […] To confirm that this was due to the acid, a solution of Compound A (in pure DMSO) was irradiated. After four hours of constant irradiation in acid-free DMSO, an E:Z ratio of nearly 50:50 was observed.\n(§3) As another non-limiting example, an azide (e.g., NHS-azide) to N-heterocyclic carbene (NHC) route may be used to synthesize triazabutadiene molecules (e.g., see FIG. 6C). For example, as shown in Compound 4 of FIG. 6D, a triazabutadiene molecule was synthesized from dimethyl imidazole derived NHC and phenyl azide. […] This change was confirmed to coincide with diazonium formation by trapping the reactive species with resorcinol to provide known diazo dye Sudan Orange G. When the triazabutadiene molecule (Compound 4) was treated with the much less acidic acetic acid, the same product was obtained.\nas §1, §2"}, "[2]": {"experiment": "Acid-triggered diazonium formation", "settings": "methanolic HCl or exposure to acid; trapped with resorcinol or Tyr 6", "from_the_text": "as §3\nTo further examine the reactivity of this class of compounds, variants Compound 6d and Compound 6e were synthesized (see FIG. 6G). It was hypothesized that the p-methoxy and p-nitro analogs (Compound 6d and Compound 6e, respectively) would display different reactivity profiles. […] After collecting the precipitate and dissolving it in deuterated methanol, no change was observed from a sample of Compound 6e that had never been exposed to a buffered solution. […]"}, "[3]": {"experiment": "Hydrolysis (deprotection) rate of protected triazabutadienes", "settings": "relative to ethyl carbamate 7, FIG. 8G", "experimental": "The reaction is assumed to be second order with the addition of hydroxide to be the rate-determining step.\nWithout wishing to limit the present invention to any theory or mechanism, it is believed that this can be rationalized by a model whereby the carbonyl is stabilized by being more electron rich and thus less prone to nucleophilic attack.\nThe reaction is assumed to be second order with the addition of hydroxide to be the rate-determining step. […] Compound was in a concentration of 31 μM in 25 mM sodium borate buffer of pH 10 with scans every 60 seconds. […] Scans were obtained every 60 seconds."}, "[4]": {"experiment": "In situ real-time pH measurement upon UV irradiation", "settings": "compared with Compound A", "experimental": "In an effort to examine the rate order for the pH-increasing reaction more carefully, in situ, real-time pH measurements were acquired. Compound A was dissolved in water and the pH of the solution was adjusted to 9 such that it would not form Compound B in the absence of light. […] This spike was not at all consistent with the model of the pH increase being solely linked to the concentration of Compound B being generated.\nA sample was irradiated and then the light was turned off once the pH of the solution started to increase noticeably. […] The experiment was repeated with increasing times of irradiation, and a saw-tooth pattern was obtained. The process was not completely reversible due to some degradation to Compound B. Indeed, triazabutadiene Compound A can serve a dual role of being a photo-masked base (see FIG. 4B(i)), and a base whose intrinsic functional group properties are altered photochemically (FIG. 4B(iii)).\nReferring to FIG. 5A(iii), Compound C and Compound D were examined in an effort to find a base that was reversibly basic but also more resistant to degradation."}, "[5]": {"experiment": "Photo-induced degradation of triazabutadienes under hand-held UV lamp, followed by NMR", "settings": "buffered borate solution, UV lamp, NMR integration", "experimental": "(i) The reaction was monitored by comparing starting materials (A, C, D, and E) with product (B); (ii) Peak absorption and extinction coefficients for all of the compounds were excitable by the UV source used; (iii) Time-dependent conversion of compounds was measured by NMR integration.\nReferring to FIG. 5A, in some embodiments, triazabutadiene molecules of the present invention may readily photoisomerize to a more reactive Z-form. As an example, an aqueous solution of Compound A was irradiated with a simple hand-held UV lamp (“365 nm,” measured at 350 nm). Consumption of Compound A was observed after only a few hours. […] Without wishing to limit the present invention to any theory or mechanism, it was hypothesized that if a two-electron process were happening, then Compound A-Z would be more basic than Compound A-E. A 1.0 N NaOH solution of Compound A was treated with light. […] Benzene diazonium ions also absorb UV light to expel nitrogen and generate a benzene radical. In order to resolve if the initial cleavage undergoes a radical homolytic mechanism versus a two-electron heterolytic mechanism, a trapping experiment using resorcinol was conducted. (Resorcinol was chosen because it can serve a dual role as a radical scavenger and a trap benzene diazonium species that could be formed.) An excess of resorcinol was added to a pH 9 borate-buffered solution of Compound A and the mixture was irradiated with light. The known azobenzene, Sudan Orange G, was formed in a 65% yield (versus 4% for the non-irradiated reaction). Derivatives of Compound A were made to examine the effects of electronic perturbations on the light-induced degradation. […] A buffered borate solution was chosen due to its alkaline nature and lack of complicating signals in the NMR experiment. Compounds C-E all have absorption spectra that are well within the range of the UV lamp (see FIG. 5A(ii))."}},
  "data": [
    {"smiles": "Cc1cc(C)c(-n2ccn(CCCS(=O)(=O)[O-])c2=NN=Nc2ccc([N+](=O)[O-])cc2)c(C)c1.[K+]", "note": "[Compound 6e]", "values": [
      {"measurement": "Stability after 24 hours", "setting": "[1]; pure D2O, dark, room temperature, NMR", "value": "stable to within the detection limit of NMR"},
      {"measurement": "Behaviour in buffered solution (solubility)", "setting": "Solubility observations; pH 5, 6 and 7 phosphate/citrate buffer", "value": "rapidly precipitated out of solution"},
      {"measurement": "Response to acid (diazonium formation)", "setting": "[2]", "value": "immediate color change"}
    ]},
    {"smiles": "Cn1ccn(C)c1=NN=Nc1ccccc1", "note": "[Compound 4]", "values": [
      {"measurement": "Water solubility", "setting": "Solubility observations", "value": "not water-soluble"},
      {"measurement": "Response to acid (diazonium formation)", "setting": "[2]", "value": "rapid color change"}
    ]},
    {"smiles": "CCOC(=O)N(N=Nc1n(-c2c(C)cc(C)cc2C)cc[n+]1-c1c(C)cc(C)cc1C)c1ccc([N+](=O)[O-])cc1.[Cl-]", "note": "[Compound 11]", "values": [
      {"measurement": "Effect of substituent on rate of deprotection / hydrolysis", "setting": "[3]", "value": "slowed hydrolysis"}
    ]},
    {"smiles": "CCOC(=O)N(N=Nc1n(-c2c(C)cc(C)cc2C)cc[n+]1-c1c(C)cc(C)cc1C)c1ccc(C(F)(F)F)cc1.[Cl-]", "note": "[Compound 10]", "values": [
      {"measurement": "Effect of substituent on rate of deprotection / hydrolysis", "setting": "[3]", "value": "slowed hydrolysis"}
    ]},
    {"smiles": "CC(C)(C)n1ccn(CCCS(=O)(=O)O)c1=NN=Nc1ccccc1", "note": "[Compound 6b]", "values": [
      {"measurement": "Compound consumed after 24 hours", "setting": "[1]; NMR", "value": 50, "unit": "%"}
    ]},
    {"smiles": "Cc1cc(C)c(-n2cc[n+](-c3c(C)cc(C)cc3C)c2N=NN(C(=O)OCC(C)(C)C)c2ccccc2)c(C)c1.[Cl-]", "note": "[Compound 12]", "values": [
      {"measurement": "Effect of substituent on rate of deprotection / hydrolysis", "setting": "[3]", "value": "small change in rate"}
    ]},
    {"smiles": "CCOC(=O)N(N=Nc1n(-c2c(C)cc(C)cc2C)cc[n+]1-c1c(C)cc(C)cc1C)c1ccc(C)cc1.[Cl-]", "note": "[Compound 8]", "values": [
      {"measurement": "Effect of substituent on rate of deprotection / hydrolysis", "setting": "[3]", "value": "slowed the rate of deprotection moderately"}
    ]},
    {"smiles": "Cc1cc(C)c(-n2cc[n+](-c3c(C)cc(C)cc3C)c2N=NN(C(=O)OC(C)C)c2ccccc2)c(C)c1.[Cl-]", "note": "[Compound 13]", "values": [
      {"measurement": "Effect of substituent on rate of deprotection / hydrolysis", "setting": "[3]", "value": "small change in rate"}
    ]},
    {"smiles": "Cn1ccn(CCCS(=O)(=O)O)c1=NN=Nc1ccccc1", "note": "[Compound 6a]", "values": [
      {"measurement": "Compound consumed after 24 hours", "setting": "[1]; NMR", "value": 50, "unit": "%"},
      {"measurement": "Water solubility", "setting": "Solubility observations", "value": "highly water soluble"}
    ]},
    {"smiles": "Cc1cc(C)c(-n2ccn(CCCS(=O)(=O)[O-])c2=NN=Nc2ccc(C#N)cc2)c(C)c1.[K+]", "note": "[Compound D]", "values": [
      {"measurement": "pH change on irradiation", "setting": "[4]", "value": "slow subtle change to the pH"},
      {"measurement": "Relative rate of light-induced degradation", "setting": "[5]", "value": "slower than Compound A"}
    ]},
    {"smiles": "CCOC(=O)N(N=Nc1n(-c2c(C)cc(C)cc2C)cc[n+]1-c1c(C)cc(C)cc1C)c1ccc(OC)cc1.[Cl-]", "note": "[Compound 9]", "values": [
      {"measurement": "Effect of substituent on rate of deprotection / hydrolysis", "setting": "[3]", "value": "rate could not be determined"}
    ]},
    {"smiles": "Cc1cc(C)c(-n2ccn(CCCS(=O)(=O)[O-])c2=NN=Nc2ccccc2)c(C)c1.[K+]", "note": "[Compound 6c, Potassium 3-(3-mesityl-2-(phenyltriaz-2-en-1-ylidene)-2,3-dihydro-1H-imidazol-1-yl) propane-1-sulfonate]", "values": [
      {"measurement": "Compound consumed after 24 hours", "setting": "[1]; NMR", "value": "less than 10%"},
      {"measurement": "Compound consumed after 6 hours", "setting": "[1]; non-buffered 90:10 H2O:D2O", "value": "> 7", "unit": "%"},
      {"measurement": "pH at centre of sigmoidal correlation between decomposition rate and buffer pH", "setting": "[1]; phosphate/citrate pH 4-7 and phosphate pH 6-8 buffers, 90:10 H2O:D2O", "value": 6}
    ]},
    {"smiles": "COc1ccc(N=NN=c2n(CCCS(=O)(=O)[O-])ccn2-c2c(C)cc(C)cc2C)cc1.[K+]", "note": "[Compound 6d]", "values": [
      {"measurement": "Compound consumed after 24 hours", "setting": "[1]; NMR", "value": 26, "unit": "%"}
    ]},
    {"smiles": "Cc1cc(C)c(-n2ccn(CCCS(=O)(=O)[O-])c2=NN=Nc2cccc([N+](=O)[O-])c2)c(C)c1.[K+]", "note": "[Compound C]", "values": [
      {"measurement": "pH change on irradiation", "setting": "[4]", "value": "slow subtle change to the pH"},
      {"measurement": "Relative rate of light-induced degradation", "setting": "[5]", "value": "slower than Compound A"}
    ]},
    {"smiles": "Cc1cc(C)c(-n2ccn(CCCS(=O)(=O)[O-])c2=NN=Nc2ccc([N+](=O)[O-])cc2)c(C)c1.[K+]", "note": "[Compound E]", "values": [
      {"measurement": "Relative rate of light-induced degradation", "setting": "[5]", "value": "recalcitrant to degradation"}
    ]}
  ]
}
